Consider 13 compounds from US6534503B1, “Melanocortin receptor-3 ligands to treat sexual dysfunction” (Lion Bioscience AG, priority 1998, dated 2003).

The target of assay [1] is T1, MC-1 (Homo sapiens, UniProt Q01726).
T1 construct: expressed in transfected cells; host or cells: HEK 293
Put plainly: cAMP assay for melanocortin receptors, HEK 293 cells expressing MC-1. The class given is cell-based. As to conditions: concentration for 50% of the maximum increase by that ligand. An excerpt: (§1) All cell culture media and reagents were obtained from GibcoBRL (Gaithersburg Md.), except for COSMIC CALF SERUM (HyClone; Logan Utah). HEK 293 cell lines were transfected with human MC receptors hMCR-1, hMCR-3 and hMCR-4 (Gantz et al., Biochem. Biophys. Res. Comm. 200:1214-1220 (1994); Gantz et al., J. Biol. Chem. 268:8246-8250 (1993); Gantz et al. J. Biol. Chem. 268:15174-15179 (1993); Haskell-Leuvano et al., Biochem. Biophys. Res. Comm. 204:1137-1142 (1994)). Vectors for constructing an hMCR-5-expressing cell line were obtained and a line of HEK 293 cells expressing hMCR-5 was constructed (Gantz, supra, 1994). Receptor hMCR-5 has been described previously (Franberg et al., Biochem. Biophys. Res. Commun. 236:489-492 (1997); Chowdhary et al., Cytogenet. Cell Genet. 68:1-2 (1995); Chowdhary et al., Cytogenet. Cell Genet. 68:79-81 (1995)). HEK 293 cells were maintained in DMEM, 25 mM HEPES, 2 mM glutamine, non-essential amino acids, vitamins, sodium pyruvate, 10% COSMIC CALF SERUM, 100 units/ml penicillin, 100 μg/ml streptomycin and 0.2 mg/ml G418 to maintain selection.
(§2) This example describes methods for assaying cAMP production from G-protein-coupled MC receptors.
(§3) HEK 293 cells individually expressing MCR-1, CR-3, MCR-4 or MCR-5 were used. Cells were plated at 20,000 cells per well in a 96-well plate coated with collagen (Beckton Dickinson; Bridgeport N.J.). The next day, cells were pretreated with 88 μl of 0.4 mM 3-isobutyl-1-methylxanthine (IBMX) in low serum medium containing DMEM, 25 mM HEPES and 0.1% COSMIC CALF SERUM. IBMX is an inhibitor of cAMP phosphodiesterase. The pretreatment was carried out for 10 minutes at 37° C.
(§4) Following pretreatment, 12.5 μl of diluted compound was added to the wells and cells were incubated for 15 min at 37° C. Cells were lysed by adding 25 μl saponin lysis buffer (130 mM KCl, 1 mM KH2PO4, 2.5 mM MgSO4, 15 mM sucrose, 20 mM HEPES, 2% BSA, 0.8% saponin) and incubating 2 to 5 minutes. Plates were covered and stored at −20° C.
The cAMP concentration was determined by ELISA. Briefly, 96 well ELISA plates were coated with goat anti-cAMP antibody in PBS for 12 to 72 hr at 4° C. 50 μl of sample was mixed with 50 μl of cAMP ELISA buffer containing 1% bovine serum albumin, 10% heat inactivated donor horse serum, 1% normal mouse serum and 0.05% TWEEN-20 in PBS, and the diluted sample was added to the coated ELISA plate. Standards of known concentrations of cAMP were added to separate wells. Then, cAMP-conjugated horseradish peroxidase (cAMP-HRP) was added to each well at 25 μl of 16 ng/ml. The plates were incubated for 3 hr at room temperature. Plates were washed and the binding of cAMP-HRP was detected with 3,3′,5,5′-tetramethylbenzidine (TMB) and hydrogen peroxide using standard immunoassay procedures. […]

The target of assay [2] is T2, MC-3 (Homo sapiens, UniProt P41968).
T2 construct: expressed in transfected cells; host or cells: HEK 293
T2 sequence (P41968 whole entry): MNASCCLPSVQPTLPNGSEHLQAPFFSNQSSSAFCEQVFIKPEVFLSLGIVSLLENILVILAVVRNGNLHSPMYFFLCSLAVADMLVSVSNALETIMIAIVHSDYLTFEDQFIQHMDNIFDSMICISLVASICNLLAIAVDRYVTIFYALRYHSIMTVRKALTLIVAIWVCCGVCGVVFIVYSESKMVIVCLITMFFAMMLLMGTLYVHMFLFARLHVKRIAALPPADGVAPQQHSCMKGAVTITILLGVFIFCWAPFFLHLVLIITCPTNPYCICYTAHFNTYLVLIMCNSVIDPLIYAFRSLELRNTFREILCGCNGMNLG
Put plainly: cAMP assay for melanocortin receptors, HEK 293 cells expressing MC-3. The settings on record: for Emax: HEK293, percentage of stimulation obtained by adding HP-228 at 0.8 μM, read-out: % of HP-228 (MC-3 stimulatory effect); for EC50: concentration for 50% of the maximum increase by that ligand. The class given is cell-based.
Description: as §1, §2, §3, §4
(§5) The cAMP concentration was determined by ELISA. Briefly, 96 well ELISA plates were coated with goat anti-cAMP antibody in PBS for 12 to 72 hr at 4° C. 50 μl of sample was mixed with 50 μl of cAMP ELISA buffer containing 1% bovine serum albumin, 10% heat inactivated donor horse serum, 1% normal mouse serum and 0.05% TWEEN-20 in PBS, and the diluted sample was added to the coated ELISA plate. Standards of known concentrations of cAMP were added to separate wells. Then, cAMP-conjugated horseradish peroxidase (cAMP-HRP) was added to each well at 25 μl of 16 ng/ml. The plates were incubated for 3 hr at room temperature. Plates were washed and the binding of cAMP-HRP was detected with 3,3′,5,5′-tetramethylbenzidine (TMB) and hydrogen peroxide using standard immunoassay procedures.
(§6) Various compounds were tested for in vitro activity and binding to melanocortin receptors. MC-3 stimulatory effect is also described in terms of percentage of stimulation obtained by adding HP-228 at 0.8 μM. The EC50 values are the concentration of ligand necessary to achieve 50% of the maximum increase by that ligand in an assay. The IC50 values are the concentration giving 50% inhibition of binding of ^125I-HP 467.

The target in assay [3] is T3, MC-4 (Homo sapiens, UniProt P32245).
T3 construct: expressed in transfected cells; host or cells: HEK 293
T3 sequence (P32245 whole entry): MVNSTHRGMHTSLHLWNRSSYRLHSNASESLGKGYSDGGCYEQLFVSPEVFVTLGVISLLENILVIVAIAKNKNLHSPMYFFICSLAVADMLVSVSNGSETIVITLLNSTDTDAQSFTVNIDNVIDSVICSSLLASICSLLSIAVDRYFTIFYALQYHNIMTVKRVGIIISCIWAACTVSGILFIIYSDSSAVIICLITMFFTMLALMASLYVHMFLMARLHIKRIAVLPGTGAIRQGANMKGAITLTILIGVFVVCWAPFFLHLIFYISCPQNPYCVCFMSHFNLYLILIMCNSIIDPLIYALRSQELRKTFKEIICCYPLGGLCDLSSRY
Kind of assay: cAMP assay for melanocortin receptors, HEK 293 cells expressing MC-4. The class given is cell-based. The settings on record: concentration for 50% of the maximum increase by that ligand.
Description: as §1, §2, §3, §4, §5, §6
A general note: cAMP levels reflect the balance of adenylyl cyclase and phosphodiesterase activity.

The subject of assay [4] is male Sprague-Dawley rats. Put plainly: Effect of oxytocin receptor antagonist vasotocin on erectile effects in rats. It counts as in vivo. As to conditions: rat. The text has this:
(§7) In both examples, male Sprague-Dawley rats, about 200 to 225 g, were acclimated for 5 days in a reverse light:dark cycle room (dark 10 a.m. to 10 p.m.) before being aseptically ICV cannulated. Rats with indwelling ICV cannulae were housed one per cage. After surgery, 4 days were allowed for recovery and 10 days total were allowed for adaptation to the light cycle. Rats were caged individually after surgery and body weights at the time of treatment averaged 250 g. Otherwise, the procedure is essentially the same as in Example II.
Treatment was between 10 a.m. and 1 p.m. […] Vasotocin (Peninsula Laboratories, San Carlos Calif.) was administered ICV at 100 ng/rat. Oxytocin (Sigma, St. Louis Mo.) was administered ICV at 30 ng/rat (10 μl/rat PBS). Ten minutes later, IP injections of HP-228 or vehicle were given. HP-228 was administered IP at 2 mg/kg in 3 ml/kg PBS. One group of animals received ICV injections of vasotocin and oxytocin ICV injections of 5 μl/rat each at double concentrations for a total of 10 μl injected ICV. In this group, the rats received vasotocin first, followed by oxytocin.

Assay [5] relates to male Sprague-Dawley rats. Put plainly: Effect of dopamine receptor antagonist sulpiride on erectile effects in rats. As to conditions: rat. The class given is in vivo.
Description: as §7
Treatment was between 9:30 a.m. and noon. Each animal received an initial IP injection of vehicle (3 ml/kg PBS) or sulpiride. Sulpiride (Sigma) was administered IP at 50 mg/kg (6 ml/kg IP). Ten minutes later, the animals received a final IP injection of HP-228 or vehicle or a SC injection of apomorphine. HP-228 was administered IP at 2 mg/kg in 3 ml/kg PBS. Apomorphine (Sigma) was administered SC at 0.1 mg/kg (1 ml/kg sterile water).

Setting [6] is: single agent plus PBS: oxytocin 30 ng/rat ICV, HP-228 2 mg/kg IP, vasotocin 100 ng/rat ICV.
The mark [7] stands for this setting: single agent plus PBS: apomorphine 0.1 mg/kg SC, HP-228 2 mg/kg IP, sulpiride 50 mg/kg IP.
[8] abbreviates: sulpiride 50 mg/kg IP followed by HP-228 2 mg/kg IP.
The mark [9] stands for this setting: sulpiride 50 mg/kg IP followed by apomorphine 0.1 mg/kg SC.
Where [10] appears, read: vasotocin 100 ng/rat ICV followed by HP-228 2 mg/kg IP.
Where [11] appears, read: vasotocin ICV followed by oxytocin ICV.

T1 sequence (Q01726 whole entry): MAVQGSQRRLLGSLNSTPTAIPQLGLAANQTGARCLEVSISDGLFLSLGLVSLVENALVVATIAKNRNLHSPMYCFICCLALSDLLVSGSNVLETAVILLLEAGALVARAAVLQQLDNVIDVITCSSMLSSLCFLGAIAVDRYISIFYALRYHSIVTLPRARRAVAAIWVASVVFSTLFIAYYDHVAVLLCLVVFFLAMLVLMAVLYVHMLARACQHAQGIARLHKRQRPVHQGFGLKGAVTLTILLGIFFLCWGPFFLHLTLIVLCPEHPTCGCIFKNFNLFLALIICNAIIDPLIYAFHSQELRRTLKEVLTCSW

Consider `CC(C)(C)c1ccc(-c2nc3cc(C(=O)N(CCc4ccccc4)Cc4ccccc4)ccc3n2C(CCCNC(=N)N)C(N)=O)cc1` (centres unmarked) [Compound A], for which the EC50 (commonly the concentration needed to bring the measured effect to its halfway point) in assay [1] is 0.47 µM; in assay [2], 7.65 µM. Also, the Emax in assay [2] is 89%.

`CCCCOc1ccc(-c2nc3cc(C(=O)NC(Cc4ccccc4)c4ccccc4)ccc3n2C(CCCNC(=N)N)C(N)=O)cc1` (centres unmarked) [Compound B]: in assay [3], the midpoint of the response, the EC50, lay at 12 µM. Further, in assay [2], the Emax turned out to be 115% and the EC50 worked out at 1.33 µM.

In turn, `CC(C)c1ccc(-c2nc3cc(C(=O)NC(Cc4ccccc4)c4ccccc4)ccc3n2C(CCCNC(=N)N)C(N)=O)cc1` (centres unmarked) [Compound C] came in with an EC50 in assay [3] of 10.6 µM. Moreover, in assay [2], the Emax was found to be 92% and the EC50 was determined as 1.4 µM.

For `CC(C)c1ccc(-c2nc3cc(C(=O)N(CCc4ccccc4)Cc4ccccc4)ccc3n2C(CCCNC(=N)N)C(N)=O)cc1` (centres unmarked) [Compound D], the EC50 in assay [3] amounted to 2.8 µM. Also, in assay [2], the Emax came to 140% and the EC50 was found to be 1.7 µM.

Turning to `CC(C)(C)c1ccc(-c2nc3cc(C(=O)NC(Cc4ccccc4)c4ccccc4)ccc3n2C(CCCNC(=N)N)C(N)=O)cc1` (centres unmarked) [Compound E], the values for the EC50 in assay [3], in assay [1] and in assay [2] were 19.9 µM, 0.43 µM and 6.7 µM, respectively. Moreover, in assay [2], the Emax was 59%.

`CC(C)(C)c1ccc(-c2nc3cc(C(=O)N4CC=C(c5ccc(Cl)cc5)CC4)ccc3n2[C@@H](CCCNC(=N)N)C(N)=O)cc1` [Compound K]: the EC50 in assay [3] stood at 0.08 µM; in assay [1], 0.38 µM; in assay [2], 1.75 µM. The Emax in assay [2] amounted to 91%.

`CC(C)(C)c1ccc(-c2nc3cc(C(=O)N(CCc4ccccc4)Cc4cccnc4)ccc3n2[C@@H](CCCNC(=N)N)C(N)=O)cc1` [Compound L]: the EC50 was determined as 6.35 µM in assay [3], 0.22 µM in assay [1] and 4.69 µM in assay [2]. Moreover, the Emax in assay [2] turned out to be 350%.

With `CCCCOc1ccc(-c2nc3cc(C(=O)N(CCc4ccccc4)Cc4cccnc4)ccc3n2[C@@H](CCCNC(=N)N)C(N)=O)cc1` [Compound M], in assay [2], the Emax is 89% and the EC50 turned out to be 3.67 µM.

In the case of `CCCCCc1ccc(-c2nc3cc(C(=O)N(CCc4ccccc4)Cc4ccccc4)ccc3n2[C@@H](CCCNC(=N)N)C(N)=O)cc1` [Compound N], in assay [3], the EC50 stood at 5.9 µM. Also, in assay [2], the Emax turned out to be 229% and the EC50 was found to be 2.32 µM.

For the compound `CC[C@H](C)[C@@H]1NC(=O)[C@H](Cc2ccc(O)cc2)NC(=O)[C@@H](N)CSSC[C@@H](C(=O)N2CCC[C@H]2C(=O)N[C@@H](CC(C)C)C(=O)NCC(N)=O)NC(=O)[C@H](CC(N)=O)NC(=O)[C@H](CCC(N)=O)NC1=O` [Oxytocin], the “response rate, % of animals” value in assay [4] (oxytocin and HP-228 groups) is reported as 88%-100%. For the same compound, in assay [4] (setting [6]), the erections per hour stood at 3.9 erections per hour and the “responder rate of animals (rats responding out of rats)” value is recorded as 7/8.

On to `CN1CCc2cccc3c2[C@H]1Cc1ccc(O)c(O)c1-3` [apomorphine], for which the “response rate, % of animals” value in assay [5] (apomorphine and HP-228 groups) is reported as 100%. In assay [5] (setting [7]), the erections per hour is reported as 4.0 erections per hour and the “rate of animals responding” value was 6/6.

For the compound `CCN1CCCC1CNC(=O)c1cc(S(N)(=O)=O)ccc1OC` (centres unmarked) [sulpiride], the results for the erections per hour in assay [5] (setting [7]), in assay [5] (setting [8]) and in assay [5] (setting [9]) were 0.0 erections per hour, 6.7 erections per hour and 1.5 erections per hour, respectively. Further, the figures for the “rate of animals responding” value in assay [5] (setting [7]), in assay [5] (setting [8]) and in assay [5] (setting [9]) were 0/2, 4/4 and 3/4, respectively.

d(CH2)5-Tyr(Me^2)-Orn^8-Vasotocin: the erections per hour worked out at 0.2 erections per hour in assay [4] (setting [6]), 5.6 erections per hour in assay [4] (setting [10]) and 1.0 erections per hour in assay [4] (setting [11]). The “responder rate of animals (rats responding out of rats)” value in assay [4] (setting [6]) is recorded as 2/8; in assay [4] (setting [10]), 8/8; in assay [4] (setting [11]), 4/8.
